These results are taken from patent US6835323B2, “Aqueous hydraulic medium” (Kemira Oyj, priority 1999, dated 2004).

The test system of test [1] is Pseudomonas putila bacterium. The conditions noted are these: cited from earlier work.
The test system of test [2] is various microbes of paper-industry waste paste. The settings on record: inoculated with microbes, within two days.
Description: The test was conducted so that each solution to be investigated was taken into two plastic sample flasks, 60 ml into each. One of the two flasks was inoculated with 2 g of paper-industry waste paste containing various microbes, such paste being known as a favorable growth medium for microbes. After mixing, the samples were allowed to stand at room temperature for 2 days.
Culture tests were performed on the samples in a laboratory specialized in microbiologic assays.
The assay of aerobic bacteria was performed using a PCA substrate and incubation for 2 days at 37° C. For the assay of anaerobic bacteria, Brewer's agar and incubation for 2 days in anaerobic vessels at 37° C. were used. In the assay of slime-forming bacteria, PCA-agar+saccharose 50 g/l and incubation for 2 days at 37° C. were used. The slimy colonies were counted. Yeasts and molds were assayed using a Saboraud maltose agar substrate and incubation for 3-4 days at 30° C.

Each structure is given as a SMILES string. In brackets after ≈: the same amount, converted by molar mass.

Turning to `O=CO` [formic acid], the “EC 50 value” in test [1] is 46.7 µg/mL (≈ 1010 µM).
`O=C[O-].[K+]` [potassium formate]: in test [2], the “Effect on inoculated microbes” value is “does not form a growth medium for microbes”.
As to `CCC(=O)O` [propionic acid], the “EC 50 value” in test [1] was 59.6 µg/mL (≈ 805 µM).
